Laboratory results reported in ChEMBL document CHEMBL1667860, “Acridone alkaloids as potent inhibitors of cathepsin V” (Bioorg Med Chem, 2011).

How the values were obtained:
Cathepsin L2 [1] = target: T1, Cathepsin L2 (Homo sapiens, UniProt O60911); assay: Inhibition of human recombinant cathepsin V expressed in Pichia pastoris by Lineweaver-Burk double-reciprocal plots
T1 sequence (O60911 whole entry): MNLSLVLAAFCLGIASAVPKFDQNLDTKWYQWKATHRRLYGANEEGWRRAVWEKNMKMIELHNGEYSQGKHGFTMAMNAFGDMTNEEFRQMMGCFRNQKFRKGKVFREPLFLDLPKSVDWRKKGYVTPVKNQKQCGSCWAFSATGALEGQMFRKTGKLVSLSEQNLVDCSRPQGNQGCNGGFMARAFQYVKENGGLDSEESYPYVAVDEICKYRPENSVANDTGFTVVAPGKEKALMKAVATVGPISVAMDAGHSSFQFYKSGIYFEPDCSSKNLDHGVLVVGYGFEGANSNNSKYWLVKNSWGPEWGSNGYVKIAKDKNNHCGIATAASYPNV

Cathepsin L2 [2] = target: T1, Cathepsin L2; assay: Inhibition of human recombinant cathepsin V expressed in Pichia pastoris

| Compound | Ki (Cathepsin L2 [1]) [nM] | IC50 (Cathepsin L2 [2]) [nM] |
| --- | --- | --- |
| COc1c(OC)c(OC)c2c(c1O)c(=O)c1cccc(O)c1n2C [CITIBRASINE] | 200 | 1200 |
| COc1c2c(c(O)c3c(=O)c4cccc(O)c4n(C)c13)C=CC(C)(C)O2 [PYRANOFOLINE] | – | 44000 |
| COc1c(O)cc(O)c2c(=O)c3cccc(O)c3n(C)c12 [CITRUSININE-II] | 4200 | 10000 |
| CC(C)=CCc1c(O)cc(O)c2c(=O)c3cccc(O)c3n(C)c12 [GLYCOCITRINE-I] | 10000 | 25000 |
| COc1c(O)c(CC=C(C)C)c(O)c2c(=O)c3cccc(O)c3n(C)c12 [GLYCOCITRINE-IV] | 1100 | 2200 |
| Cn1c2c(O)cccc2c(=O)c2c(O)cc3c(c21)C=CC(C)(C)O3 | – | 48000 |
| COc1c2c(c(O)c3c(=O)c4cccc(O)c4n(C)c13)CC(C(C)(C)O)O2 (stereo not given) | 4400 | 5200 |
| COc1cc(O)c2c(=O)c3cccc(O)c3n(C)c2c1OC [CITRUSININE-I] | 1000 | 2200 |
| CC(C)=CCc1c(O)cc2c(c1O)c(=O)c1c(CC=C(C)C)ccc(O)c1n2C | 1200 | 3900 |
| COc1c(O)c(CC=C(C)C)c(O)c2c(=O)c3c(CC=C(C)C)ccc(O)c3n(C)c12 | 500 | 2500 |
| COc1c(O)c2c(c3c(=O)c4cccc(O)c4n(C)c13)OC(C)(C)C(O)C2 (stereo not given) | 1700 | 2800 |
